Several values for one entry are separate records, joined by “and”; a condition that tells them apart may be missing. Identical values can stand only once. ± gives the expanded uncertainty stated by the source.
Details: Fluid (supercritical or subcritical phases), Buoyancy - hydrostatic balance with magnetic suspension - one sinker

[Ar] [argon]
mass density (298.2 K, 30957 kPa): 499.118 ± 0.25 kg/m3 | mass density (298.22 K, 26965 kPa): 444.81 ± 0.22 kg/m3 | mass density (298.22 K, 28963 kPa): 472.591 ± 0.24 kg/m3 | mass density (298.23 K, 10975 kPa): 185.811 ± 0.11 kg/m3 | mass density (298.23 K, 12977 kPa): 220.515 ± 0.12 kg/m3 | mass density (298.23 K, 14975 kPa): 254.862 ± 0.14 kg/m3 | mass density (298.23 K, 18968 kPa): 321.888 ± 0.17 kg/m3 | mass density (298.23 K, 20970 kPa): 354.268 ± 0.18 kg/m3 | mass density (298.23 K, 22969 kPa): 385.599 ± 0.2 kg/m3 | mass density (298.23 K, 24967 kPa): 415.802 ± 0.21 kg/m3 | mass density (298.24 K, 16973 kPa): 288.723 ± 0.15 kg/m3 | mass density (348.19 K, 30960 kPa): 409.077 ± 0.2 kg/m3 | mass density (348.21 K, 10976 kPa): 153.363 ± 0.077 kg/m3 | mass density (348.21 K, 19007 kPa): 262.654 ± 0.14 kg/m3 | mass density (348.21 K, 28963 kPa): 386.293 ± 0.19 kg/m3 | mass density (348.22 K, 18971 kPa): 262.184 ± 0.14 kg/m3 | mass density (348.22 K, 28964 kPa): 386.289 ± 0.19 kg/m3 | mass density (348.23 K, 17005 kPa): 236 ± 0.42 kg/m3 | mass density (348.24 K, 15014 kPa): 209.051 ± 0.29 kg/m3 | mass density (348.24 K, 16969 kPa): 235.508 ± 0.42 kg/m3 | mass density (348.24 K, 26966 kPa): 362.782 ± 1.3 kg/m3 | mass density (348.24 K, 30961 kPa): 409.019 ± 0.2 kg/m3 | mass density (348.25 K, 12974 kPa): 181.049 ± 0.34 kg/m3 | mass density (348.25 K, 32887 kPa): 430.274 ± 0.21 kg/m3 | mass density (348.26 K, 21009 kPa): 288.719 ± 0.17 kg/m3 | mass density (348.26 K, 24967 kPa): 338.568 ± 0.87 kg/m3 | mass density (348.27 K, 14970 kPa): 208.427 ± 0.29 kg/m3 | mass density (348.27 K, 20969 kPa): 288.199 ± 0.17 kg/m3 | mass density (348.27 K, 22970 kPa): 313.733 ± 0.19 kg/m3 | mass density (348.27 K, 26989 kPa): 363.019 ± 1.3 kg/m3 | mass density (348.28 K, 11019 kPa): 153.917 ± 0.078 kg/m3 | mass density (348.28 K, 13012 kPa): 181.556 ± 0.34 kg/m3 | mass density (348.28 K, 25000 kPa): 338.949 ± 0.87 kg/m3 | mass density (348.29 K, 23010 kPa): 314.199 ± 0.19 kg/m3 | mass density (397.91 K, 12975 kPa): 155.101 ± 0.085 kg/m3 | mass density (397.98 K, 14981 kPa): 178.323 ± 0.096 kg/m3 | mass density (398.1 K, 24969 kPa): 288.472 ± 0.14 kg/m3 | mass density (398.17 K, 16979 kPa): 201.05 ± 0.11 kg/m3 | mass density (398.19 K, 30985 kPa): 349.444 ± 0.17 kg/m3 | mass density (398.2 K, 28999 kPa): 329.764 ± 0.17 kg/m3 | mass density (398.21 K, 32960 kPa): 368.494 ± 0.18 kg/m3 | mass density (398.23 K, 26971 kPa): 309.171 ± 0.17 kg/m3 | mass density (398.23 K, 30962 kPa): 349.179 ± 0.17 kg/m3 | mass density (398.24 K, 11017 kPa): 132.022 ± 0.076 kg/m3 | mass density (398.24 K, 19010 kPa): 223.818 ± 0.11 kg/m3 | mass density (398.25 K, 21010 kPa): 245.897 ± 0.12 kg/m3 | mass density (398.26 K, 13011 kPa): 155.367 ± 0.085 kg/m3 | mass density (398.26 K, 23005 kPa): 267.5 ± 0.13 kg/m3 | mass density (398.28 K, 28964 kPa): 329.33 ± 0.16 kg/m3 | mass density (398.3 K, 17005 kPa): 201.261 ± 0.11 kg/m3 | mass density (398.31 K, 15013 kPa): 178.513 ± 0.097 kg/m3 | mass density (398.35 K, 27004 kPa): 309.394 ± 0.15 kg/m3 | mass density (398.47 K, 25004 kPa): 288.536 ± 0.14 kg/m3 | mass density (398.61 K, 18975 kPa): 223.208 ± 0.12 kg/m3 | mass density (398.87 K, 20975 kPa): 245.092 ± 0.13 kg/m3 | mass density (398.92 K, 22970 kPa): 266.619 ± 0.14 kg/m3

N#N [nitrogen]
mass density (298.12 K, 32109 kPa): 311.953 ± 0.15 kg/m3 | mass density (298.22 K, 30959 kPa): 303.674 ± 0.15 kg/m3 | mass density (298.23 K, 10976 kPa): 123.118 ± 0.07 kg/m3 | mass density (298.23 K, 12976 kPa): 144.452 ± 0.079 kg/m3 | mass density (298.23 K, 16971 kPa): 185.161 ± 0.096 kg/m3 | mass density (298.23 K, 19010 kPa): 204.785 ± 0.1 kg/m3 | mass density (298.23 K, 20970 kPa): 222.928 ± 0.11 kg/m3 | mass density (298.23 K, 22971 kPa): 240.653 ± 0.12 kg/m3 | mass density (298.23 K, 26968 kPa): 273.675 ± 0.14 kg/m3 | mass density (298.23 K, 26969 kPa): 273.679 ± 0.14 kg/m3 | mass density (298.23 K, 28965 kPa): 289.039 ± 0.14 kg/m3 | mass density (298.23 K, 28966 kPa): 289.035 ± 0.14 kg/m3 | mass density (298.24 K, 11019 kPa): 123.569 ± 0.07 kg/m3 | mass density (298.24 K, 13017 kPa): 144.868 ± 0.079 kg/m3 | mass density (298.24 K, 14976 kPa): 165.17 ± 0.088 kg/m3 | mass density (298.24 K, 17014 kPa): 185.557 ± 0.096 kg/m3 | mass density (298.24 K, 18975 kPa): 204.467 ± 0.1 kg/m3 | mass density (298.24 K, 21004 kPa): 223.219 ± 0.11 kg/m3 | mass density (298.24 K, 22992 kPa): 240.817 ± 0.12 kg/m3 | mass density (298.24 K, 24970 kPa): 257.55 ± 0.13 kg/m3 | mass density (298.24 K, 24971 kPa): 257.546 ± 0.13 kg/m3 | mass density (298.25 K, 15014 kPa): 165.544 ± 0.088 kg/m3 | mass density (298.33 K, 30945 kPa): 303.445 ± 0.15 kg/m3 | mass density (348.21 K, 28966 kPa): 244.176 ± 0.12 kg/m3 | mass density (348.23 K, 17010 kPa): 154.974 ± 0.11 kg/m3 | mass density (348.23 K, 32959 kPa): 269.893 ± 0.13 kg/m3 | mass density (348.24 K, 18974 kPa): 170.907 ± 0.093 kg/m3 | mass density (348.24 K, 26968 kPa): 230.548 ± 0.12 kg/m3 | mass density (348.24 K, 28967 kPa): 244.162 ± 0.12 kg/m3 | mass density (348.25 K, 10981 kPa): 103.086 ± 0.18 kg/m3 | mass density (348.25 K, 13016 kPa): 121.065 ± 0.07 kg/m3 | mass density (348.25 K, 22970 kPa): 201.759 ± 0.32 kg/m3 | mass density (348.25 K, 24970 kPa): 216.421 ± 0.13 kg/m3 | mass density (348.25 K, 26979 kPa): 230.612 ± 0.12 kg/m3 | mass density (348.25 K, 30963 kPa): 257.253 ± 0.13 kg/m3 and 257.258 ± 0.13 kg/m3 | mass density (348.26 K, 15015 kPa): 138.272 ± 0.074 kg/m3 | mass density (348.26 K, 16972 kPa): 154.648 ± 0.11 kg/m3 | mass density (348.26 K, 20971 kPa): 186.577 ± 0.31 kg/m3 | mass density (348.27 K, 11019 kPa): 103.42 ± 0.18 kg/m3 | mass density (348.27 K, 21013 kPa): 186.886 ± 0.31 kg/m3 | mass density (348.28 K, 12976 kPa): 120.712 ± 0.069 kg/m3 | mass density (348.28 K, 14976 kPa): 137.928 ± 0.073 kg/m3 | mass density (348.28 K, 19011 kPa): 171.174 ± 0.093 kg/m3 | mass density (348.28 K, 23006 kPa): 202.007 ± 0.32 kg/m3 | mass density (348.29 K, 25001 kPa): 216.612 ± 0.13 kg/m3 | mass density (398.17 K, 21012 kPa): 161.802 ± 0.082 kg/m3 | mass density (398.19 K, 23005 kPa): 175.071 ± 0.088 kg/m3 | mass density (398.21 K, 27000 kPa): 200.503 ± 0.1 kg/m3 | mass density (398.22 K, 19011 kPa): 148.062 ± 0.076 kg/m3 | mass density (398.22 K, 28993 kPa): 212.616 ± 0.1 kg/m3 | mass density (398.22 K, 32961 kPa): 235.672 ± 0.12 kg/m3 | mass density (398.23 K, 25002 kPa): 187.957 ± 0.094 kg/m3 | mass density (398.24 K, 20972 kPa): 161.499 ± 0.082 kg/m3 | mass density (398.24 K, 26967 kPa): 200.287 ± 0.1 kg/m3 | mass density (398.24 K, 28966 kPa): 212.445 ± 0.1 kg/m3 | mass density (398.25 K, 12976 kPa): 104.354 ± 0.057 kg/m3 | mass density (398.25 K, 22969 kPa): 174.806 ± 0.088 kg/m3 | mass density (398.26 K, 24969 kPa): 187.737 ± 0.094 kg/m3 | mass density (398.26 K, 30962 kPa): 224.219 ± 0.11 kg/m3 | mass density (398.27 K, 30977 kPa): 224.298 ± 0.11 kg/m3 | mass density (398.28 K, 14977 kPa): 119.222 ± 0.065 kg/m3 | mass density (398.28 K, 18975 kPa): 147.786 ± 0.076 kg/m3 | mass density (398.29 K, 16973 kPa): 133.67 ± 0.07 kg/m3 | mass density (398.3 K, 13014 kPa): 104.623 ± 0.057 kg/m3 | mass density (398.32 K, 11005 kPa): 89.328 ± 0.051 kg/m3 | mass density (398.36 K, 17012 kPa): 133.928 ± 0.07 kg/m3 | mass density (398.39 K, 15006 kPa): 119.391 ± 0.065 kg/m3
